Values of other authors, collected in patent publication EP3954777A1, “METHOD FOR ENZYMATIC DEGRADATION OF BITTER COMPOUNDS IN AGRO-INDUSTRIAL BY-PRODUCTS” (SternEnzym GmbH & Co. KG, priority 2020, dated 2022).

System: human test persons
Settings: bitter taste

kaempferol 3-O-(2"'-O-sinapoyl-β-sophoroside)
level that, on average, can be tasted by humans (average (Hald et al., 2019)): 3.4 µmol/L | lowest level detectable by human test persons (lowest (Hald et al., 2019)): 1.7 µmol/L
